Laboratory results: patent publication US11596639B2, “Substituted indole Mcl-1 inhibitors” (Vanderbilt University, priority 2016, dated 2023)

How the values were obtained:
[1] = tested on: H929 human cancer cell lines; assay: Cellular viability / proliferation (Cell TiterGlo, 72 h); type: cell-based; details: Homo sapiens, NCI-H929, 72 h, read-out: GI50 on cellular proliferation of H929 human cancer cell lines, H929 cells, 72 h, Cell TiterGlo, 10% FBS
In short: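 1,000 cells/well, 10% FBS medium; compound added at 24 h, 2-fold dilutions from 50 μM top, DMSO <1% final. 72 h exposure, CellTiterGlo 30 min RT dark, luminescence read. IC50 by 4-parameter fit.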

Mcl-1 = Mcl-1 (Homo sapiens (Human), UniProt Q07820); assay: TR-FRET binding assay, FITC-Bak peptide and MBP-tagged Mcl-1; details: read-out: Ki for Inhibition of Mcl-1 by TR-FRET assay
Procedure: Compounds are diluted in DMSO in a 16-point, semilog serial dilution scheme. […] The plate was mixed and incubated for 3 hours at room temperature. […] TR-FRET signal is plotted and IC50 and Ki values are calculated in the same manner as the fluorescence polarization anisotropy based competition assays.

Sequence of Mcl-1 (Q07820 172-327): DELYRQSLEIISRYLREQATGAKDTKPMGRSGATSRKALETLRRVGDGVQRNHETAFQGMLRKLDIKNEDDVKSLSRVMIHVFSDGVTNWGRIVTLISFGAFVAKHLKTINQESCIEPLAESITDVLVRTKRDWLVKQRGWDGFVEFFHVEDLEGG

Cc1cc(OCCCc2c3n(c4c(-c5c(C)nn(C)c5C)c(Cl)ccc24)[C@H](C)CN(c2cc(NCCN(C)C)cc4c(C(=O)O)cn(C)c24)C3=O)cc(C)c1Cl [Example 498, (R)-7-(7-chloro-10-(3-(4-chloro-3,5-dimethylphenoxy)propyl)-4-methyl-1-oxo-6-(1,3,5-trimethyl-1H-pyrazol-4-yl)-3,4-dihydropyrazino[1,2-a]indol-2(1H)-yl)-5-((2-(dimethylamino)ethyl)amino)-1-methyl-1H-indole-3-carboxylic acid]
GI50 [1]: 1900 nM
Ki (Mcl-1): 0.58 nM

COCCn1cc(C(=O)O)c2cc(OCCN3CCN(C)CC3)cc(N3C[C@@H](C)n4c(c(CCCOc5cc(C)c(Cl)c(C)c5)c5ccc(Cl)c(-c6c(C)nn(C)c6C)c54)C3=O)c21 [Example 676, (R)-7-(7-chloro-10-(3-(4-chloro-3,5-dimethylphenoxy)propyl)-4-methyl-1-oxo-6-(1,3,5-trimethyl-1H-pyrazol-4-yl)-3,4-dihydropyrazino[1,2-a]indol-2(1H)-yl)-1-(2-methoxyethyl)-5-(2-(4-methylpiperazin-1-yl)ethoxy)-1H-indole-3-carboxylic acid]
GI50 [1]: 1100 nM
Ki (Mcl-1): 0.56 nM

COCCn1cc(C(=O)O)c2cccc(N3C[C@@H](C)n4c(c(CCCOc5cc(C)c(Cl)c(C)c5)c5ccc(Cl)c(-c6c(C)nn(C)c6C)c54)C3=O)c21 [Example 512, (R)-7-(7-Chloro-10-(3-(4-chloro-3,5-dimethylphenoxy)propyl)-4-methyl-1-oxo-6-(1,3,5-trimethyl-1H-pyrazol-4-yl)-3,4-dihydropyrazino[1,2-a]indol-2(1H)-yl)-1-(2-methoxyethyl)-1H-indole-3-carboxylic acid]
GI50 [1]: 220 nM
Ki (Mcl-1): < 0.2 nM

Cc1cc(OCCCc2c3n(c4c(-c5c(C)nn(C)c5C)c(Cl)ccc24)[C@H](C)CN(c2cc(COCCN4CCOCC4)cc4cc(C(=O)O)n(C)c24)C3=O)cc(C)c1Cl [Example 693, (R)-7-(7-chloro-10-(3-(4-chloro-3,5-dimethylphenoxy)propyl)-4-methyl-1-oxo-6-(1,3,5-trimethyl-1H-pyrazol-4-yl)-3,4-dihydropyrazino[1,2-a]indol-2(1H)-yl)-1-methyl-5-((2-morpholinoethoxy)methyl)-1H-indole-2-carboxylic acid]
GI50 [1]: 210 nM
Ki (Mcl-1): < 0.2 nM

COCCOc1cc(N2C[C@@H](C)n3c(c(CCCOc4cc(C)c(Cl)c(C)c4)c4ccc(Cl)c(-c5c(C)ncnc5C)c43)C2=O)c2c(c1)cc(C(=O)O)n2Cc1cc(C)ccn1 [Example 573, (R)-7-(7-chloro-10-(3-(4-chloro-3,5-dimethylphenoxy)propyl)-6-(4,6-dimethylpyrimidin-5-yl)-4-methyl-1-oxo-3,4-dihydropyrazino[1,2-a]indol-2(1H)-yl)-5-(2-methoxyethoxy)-1-((4-methylpyridin-2-yl)methyl)-1H-indole-2-carboxylic acid]
GI50 [1]: < 200 nM
Ki (Mcl-1): < 0.2 nM

Cc1cc(OCCCc2c3n(c4c(-c5c(C)ncnc5C)c(Cl)ccc24)[C@H](C)CN(c2cn(C)c4ccc(C(=O)O)nc24)C3=O)cc(C)c1Cl [Example 651, (R)-3-(7-chloro-10-(3-(4-chloro-3,5-dimethylphenoxy)propyl)-6-(4,6-dimethylpyrimidin-5-yl)-4-methyl-1-oxo-3,4-dihydropyrazino[1,2-a]indol-2(1H)-yl)-1-methyl-1H-pyrrolo[3,2-b]pyridine-5-carboxylic acid]
GI50 [1]: 290 nM
Ki (Mcl-1): < 0.2 nM

COCCn1c(C(=O)O)cc2cc(OC)cc(N3C[C@@H](C)n4c(c(CCCOc5cc(C)c(Cl)c(C)c5)c5ccc(Cl)c(-c6c(C)ncnc6C)c54)C3=O)c21 [Example 660, (R)-7-(7-chloro-10-(3-(4-chloro-3,5-dimethylphenoxy)propyl)-6-(4,6-dimethylpyrimidin-5-yl)-4-methyl-1-oxo-3,4-dihydropyrazino[1,2-a]indol-2(1H)-yl)-5-methoxy-1-(2-methoxyethyl)-1H-indole-2-carboxylic acid]
GI50 [1]: 330 nM
Ki (Mcl-1): < 0.2 nM

Cc1cc(OCCCc2c3n(c4c(-c5c(C)nn(C)c5C)c(Cl)ccc24)[C@H](C)CN(c2cn(CCN4CCCC4)c4ccc(C(=O)O)cc24)C3=O)cc(C)c1Cl [Example 511, (R)-3-(7-Chloro-10-(3-(4-chloro-3,5-dimethylphenoxy)propyl)-4-methyl-1-oxo-6-(1,3,5-trimethyl-1H-pyrazol-4-yl)-3,4-dihydropyrazino[1,2-a]indol-2(1H)-yl)-1-(2-(pyrrolidin-1-yl)ethyl)-1H-indole-5-carboxylic acid]
GI50 [1]: 300 nM
Ki (Mcl-1): < 0.2 nM

Cc1cc(OCCCc2c3n(c4c(-c5c(C)nn(C)c5C)c(Cl)ccc24)[C@H](C)CN(c2cc(CN4CCN(C)C(=O)C4)cc4cc(C(=O)O)n(C)c24)C3=O)cc(C)c1Cl [Example 628, (R)-7-(7-chloro-10-(3-(4-chloro-3,5-dimethylphenoxy)propyl)-4-methyl-1-oxo-6-(1,3,5-trimethyl-1H-pyrazol-4-yl)-3,4-dihydropyrazino[1,2-a]indol-2(1H)-yl)-1-methyl-5-((4-methyl-3-oxopiperazin-1-yl)methyl)-1H-indole-2-carboxylic acid]
GI50 [1]: 440 nM
Ki (Mcl-1): < 0.2 nM

Cc1cc(N2C[C@@H](C)n3c(c(CCCOc4cc(C)c(Cl)c(C)c4)c4ccc(Cl)c(-c5c(C)nn(C)c5C)c43)C2=O)c2c(c1)cc(C(=O)O)n2CC(=O)N1CCOCC1 [Example 598, (R)-7-(7-chloro-10-(3-(4-chloro-3,5-dimethylphenoxy)propyl)-4-methyl-1-oxo-6-(1,3,5-trimethyl-1H-pyrazol-4-yl)-3,4-dihydropyrazino[1,2-a]indol-2(1H)-yl)-5-methyl-1-(2-morpholino-2-oxoethyl)-1H-indole-2-carboxylic acid]
GI50 [1]: 1900 nM
Ki (Mcl-1): < 0.2 nM

COCCOC1CCN(Cc2cc(N3C[C@@H](C)n4c(c(CCCOc5cc(C)c(Cl)c(C)c5)c5ccc(Cl)c(-c6c(C)nn(C)c6C)c54)C3=O)c3c(c2)cc(C(=O)O)n3C)CC1 [Example 650, (R)-7-(7-chloro-10-(3-(4-chloro-3,5-dimethylphenoxy)propyl)-4-methyl-1-oxo-6-(1,3,5-trimethyl-1H-pyrazol-4-yl)-3,4-dihydropyrazino[1,2-a]indol-2(1H)-yl)-5-((4-(2-methoxyethoxy)piperidin-1-yl)methyl)-1-methyl-1H-indole-2-carboxylic acid]
GI50 [1]: 210 nM
Ki (Mcl-1): < 0.2 nM

COc1ccc(N2C[C@@H](C)n3c(c(CCCOc4cc(C)c(Cl)c(C)c4)c4ccc(Cl)c(-c5c(C)nn(C)c5C)c43)C2=O)c2c1c(C(=O)O)cn2Cc1ccccn1 [Example 617, (R)-7-(7-chloro-10-(3-(4-chloro-3,5-dimethylphenoxy)propyl)-4-methyl-1-oxo-6-(1,3,5-trimethyl-1H-pyrazol-4-yl)-3,4-dihydropyrazino[1,2-a]indol-2(1H)-yl)-4-methoxy-1-(pyridin-2-ylmethyl)-1H-indole-3-carboxylic acid]
GI50 [1]: 440 nM
Ki (Mcl-1): < 0.2 nM

COCCOc1cc(N2C[C@@H](C)n3c(c(CCCOc4cc(C)c(Cl)c(C)c4)c4ccc(Cl)c(-c5c(C)nn(C)c5C)c43)C2=O)c2c(c1)c(C(=O)O)cn2Cc1cc(C)cc(C)n1 [Example 652, (R)-7-(7-chloro-10-(3-(4-chloro-3,5-dimethylphenoxy)propyl)-4-methyl-1-oxo-6-(1,3,5-trimethyl-1H-pyrazol-4-yl)-3,4-dihydropyrazino[1,2-a]indol-2(1H)-yl)-1-((4,6-dimethylpyridin-2-yl)methyl)-5-(2-methoxyethoxy)-1H-indole-3-carboxylic acid]
GI50 [1]: 370 nM
Ki (Mcl-1): 0.28 nM

Cc1cc(OCCCc2c3n(c4c(-c5c(C)nn(C)c5C)c(Cl)ccc24)[C@H](C)CN(c2cn(C)c4ccc(-c5cncnc5)cc24)C3=O)cc(C)c1Cl [Example 653, (R)-7-Chloro-10-(3-(4-chloro-3,5-dimethylphenoxy)propyl)-4-methyl-2-(1-methyl-5-(pyrimidin-5-yl)-1H-indol-3-yl)-6-(1,3,5-trimethyl-1H-pyrazol-4-yl)-3,4-dihydropyrazino[1,2-a]indol-1(2H)-one]
GI50 [1]: 1900 nM
Ki (Mcl-1): 15 nM

Cc1cc(N2C[C@@H](C)n3c(c(CCCOc4cc(C)c(Cl)c(C)c4)c4ccc(Cl)c(-c5c(C)nn(C)c5C)c43)C2=O)c2c(c1)cc(C(=O)O)n2CC(=O)N(C)C [Example 596, (R)-7-(7-chloro-10-(3-(4-chloro-3,5-dimethylphenoxy)propyl)-4-methyl-1-oxo-6-(1,3,5-trimethyl-1H-pyrazol-4-yl)-3,4-dihydropyrazino[1,2-a]indol-2(1H)-yl)-1-(2-(dimethylamino)-2-oxoethyl)-5-methyl-1H-indole-2-carboxylic acid]
GI50 [1]: 1300 nM
Ki (Mcl-1): < 0.2 nM

Cc1cc(OCCCc2c3n(c4c(-c5c(C)cc(OCCN(C)C)cc5C)c(Cl)ccc24)[C@H](C)CN(c2cn(C)c4ccc(C(=O)O)cc24)C3=O)cc(C)c1Cl [Example 509, (R)-3-(7-chloro-10-(3-(4-chloro-3,5-dimethylphenoxy)propyl)-6-(4-(2-(dimethylamino)ethoxy)-2,6-dimethylphenyl)-4-methyl-1-oxo-3,4-dihydropyrazino[1,2-a]indol-2(1H)-yl)-1-methyl-1H-indole-5-carboxylic acid]
GI50 [1]: 390 nM
Ki (Mcl-1): 1.6 nM

COCCOCc1cccn2nc(-c3ccc4c(c3)c(N3C[C@@H](C)n5c(c(CCCOc6cc(C)c(Cl)c(C)c6)c6ccc(Cl)c(-c7c(C)nn(C)c7C)c65)C3=O)cn4C)nc12 [Example 699, (R)-7-Chloro-10-(3-(4-chloro-3,5-dimethylphenoxy)propyl)-2-(5-(8-((2-methoxyethoxy)methyl)-[1,2,4]triazolo[1,5-a]pyridin-2-yl)-1-methyl-1H-indol-3-yl)-4-methyl-6-(1,3,5-trimethyl-1H-pyrazol-4-yl)-3,4-dihydropyrazino[1,2-a]indol-1(2H)-one]
GI50 [1]: 350 nM
Ki (Mcl-1): 1.2 nM
